Test results as given in paper PMC10132233 (Journal of Enzyme Inhibition and Medicinal Chemistry, 2023).

What was measured:
[1] = biological target: T1, fibroblast growth factor receptor 1 (FGFR1) (Homo sapiens, UniProt P11362); assay: Small kinase panel, FGFR1; type: biochemical; conditions: read-out: % kinase inhibition (relative to DMSO control) FGFR1
T1 construct: purchased Reaction Biology Co. (Malvern, PA)
Description: (§1) Enzyme inhibitory assays were carried out as described in our previous reports in the literature. […] The HotSpot assay platform includes specific kinase/substrate pairs and required cofactors. The base reaction buffer consisted of 20 mM Hepes (pH 7.5), 10 mM MgCl2, 1 mM EGTA, 0.02% Brij35, 0.02 mg/mL BSA, 0.1 mM Na3VO4, 2 mM DTT, and 1% DMSO. The tested compounds were dissolved in 100% DMSO to a specific concentration, and serial dilution was conducted. The reaction mixture containing the tested compound and 33P-ATP was incubated at room temperature for 2 h, and radioactivity was detected using the filter-binding method.

[2] = biological target: T2, vascular endothelial growth factor receptor 2 (VEGFR2) (Homo sapiens, UniProt P35968); assay: Small kinase panel, VEGFR2; type: biochemical; conditions: read-out: % kinase inhibition (relative to DMSO control) VEGFR2
T2 construct: purchased Reaction Biology Co. (Malvern, PA)
T2 sequence (P35968 20-1356): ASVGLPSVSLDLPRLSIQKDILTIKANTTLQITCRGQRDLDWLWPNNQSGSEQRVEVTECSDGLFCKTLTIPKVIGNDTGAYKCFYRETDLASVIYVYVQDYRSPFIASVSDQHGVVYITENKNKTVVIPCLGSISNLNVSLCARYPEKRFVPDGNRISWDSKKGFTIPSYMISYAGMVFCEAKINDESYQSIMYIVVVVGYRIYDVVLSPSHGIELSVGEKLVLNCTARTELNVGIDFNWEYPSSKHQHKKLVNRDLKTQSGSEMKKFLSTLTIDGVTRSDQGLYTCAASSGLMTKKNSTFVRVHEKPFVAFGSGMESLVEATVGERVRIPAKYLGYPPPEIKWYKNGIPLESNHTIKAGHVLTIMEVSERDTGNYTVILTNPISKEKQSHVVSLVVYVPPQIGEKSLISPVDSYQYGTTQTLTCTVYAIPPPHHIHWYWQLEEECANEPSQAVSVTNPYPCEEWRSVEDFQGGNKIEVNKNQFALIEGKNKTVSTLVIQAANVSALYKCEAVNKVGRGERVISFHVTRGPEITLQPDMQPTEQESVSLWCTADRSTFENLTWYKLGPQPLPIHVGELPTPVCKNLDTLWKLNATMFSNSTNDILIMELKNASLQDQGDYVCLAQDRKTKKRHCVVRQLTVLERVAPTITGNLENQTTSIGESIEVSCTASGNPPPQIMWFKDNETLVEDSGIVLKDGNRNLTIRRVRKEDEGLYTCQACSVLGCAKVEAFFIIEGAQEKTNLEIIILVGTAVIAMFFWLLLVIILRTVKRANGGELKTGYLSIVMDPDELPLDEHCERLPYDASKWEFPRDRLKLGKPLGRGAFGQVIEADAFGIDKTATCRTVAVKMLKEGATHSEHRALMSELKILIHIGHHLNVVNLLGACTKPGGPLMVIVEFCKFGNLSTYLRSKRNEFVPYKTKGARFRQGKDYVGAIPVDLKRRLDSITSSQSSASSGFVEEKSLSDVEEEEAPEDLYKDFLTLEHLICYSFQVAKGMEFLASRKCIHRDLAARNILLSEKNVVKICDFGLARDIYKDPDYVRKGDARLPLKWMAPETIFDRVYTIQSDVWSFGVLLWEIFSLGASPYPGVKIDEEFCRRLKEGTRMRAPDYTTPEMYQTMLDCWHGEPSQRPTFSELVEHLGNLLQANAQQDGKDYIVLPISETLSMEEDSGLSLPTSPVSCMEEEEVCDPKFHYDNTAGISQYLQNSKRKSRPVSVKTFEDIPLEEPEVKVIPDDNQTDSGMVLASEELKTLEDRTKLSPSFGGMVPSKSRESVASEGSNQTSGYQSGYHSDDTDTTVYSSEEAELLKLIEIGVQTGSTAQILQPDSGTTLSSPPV
Description: as §1

[3] = biological target: T3, p38α mitogen-activated protein kinase (MAPK14) (Homo sapiens, UniProt Q16539); assay: Small kinase panel, MAPK14; type: biochemical; conditions: read-out: % kinase inhibition (relative to DMSO control) MAPK14
T3 construct: purchased Reaction Biology Co. (Malvern, PA)
T3 sequence (Q16539 whole entry): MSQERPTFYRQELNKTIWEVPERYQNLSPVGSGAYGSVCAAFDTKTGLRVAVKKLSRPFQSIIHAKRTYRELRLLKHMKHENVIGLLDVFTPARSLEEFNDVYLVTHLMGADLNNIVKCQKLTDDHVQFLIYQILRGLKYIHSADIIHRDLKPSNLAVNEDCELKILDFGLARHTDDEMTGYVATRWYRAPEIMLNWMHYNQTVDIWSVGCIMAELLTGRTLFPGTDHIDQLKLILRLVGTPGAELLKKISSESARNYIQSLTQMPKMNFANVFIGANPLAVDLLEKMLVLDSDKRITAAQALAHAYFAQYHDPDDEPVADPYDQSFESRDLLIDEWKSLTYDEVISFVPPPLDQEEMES
Description: as §1

[4] = system: PC3 prostate carcinoma cell line; assay: MTT cytotoxicity assay, PC3; type: cell-based; conditions: Homo sapiens, 24 h
Text: (§2) Accordingly, we aimed to investigate the cytotoxic potential of this new series against prostate carcinoma cell lines. […] The potent nanomolar cell-based activity of this series of compounds over the tested prostate carcinoma cell line could be attributed to other possible targets in addition to EGFR and HER2 receptors. The presence of the 2-nitroimidazole moiety in the chemical structure of compounds 9a–h could develop possible covalent bonds between the nitroimidazole moiety and some cellular proteins.
(§3) Prostate cancer cell lines (PC3 and 22RV1) of American Type Culture Collection (ATCC) were obtained from Korean Cell Center (KCL). PC3 and 22RV1 cell lines were cultured in Roswell Park Memorial Institute Medium (RPMI) 1640 and Dulbecco’s modified Eagle’s medium (DMEM) (GenDepot, Barker, TX) supplemented with 1% penicillin–streptomycin and 10% foetal bovine serum (FBS). The cells were maintained at 37 °C in a 5% CO2 with a 95% humid atmosphere.
(§4) To further analyse the intracellular cytotoxicity effect of the as-synthesised compounds, MTT assay was performed. Moreover, the experiments were divided into subcategories. In each group, cancer cells were first seeded in 96-well plates (4 × 10^4 cells per well) and then incubated for 24 h at 37 °C in a 5% CO2-containing atmosphere. Subsequently, the medium from the culture plate was removed, and 100 µL of RPMI media containing different concentrations of compounds (0.01, 0.005, 0.0025, 0.00125, and 0.000625 µM) were then added into the cell lines in each well and incubated for 24 h in a 5% CO2 humidified incubator at 37 °C. Afterwards, MTT solution (150 μL, 1 mg/mL) was added to each well, replacing the media-containing compounds. After 4 h of incubation, the MTT reagent was removed, and 200 μL of DMSO was then added to dissolve the formazan crystals, and colour intensity was measured at a wavelength of 540 nm using a BioTek Synergy H1 instrument (BioTek, Winooski, VT). IC50 was calculated according to the equation of Boltzmann sigmoidal concentration–response curve using Graph Pad Prism 5 (La Jolla, CA).

[5] = system: 22RV1 prostate carcinoma cell line; assay: MTT cytotoxicity assay, 22RV1; type: cell-based; conditions: Homo sapiens, 24 h
Text: as §2, §3, §4

22RV1 cells = assay: Apoptosis analysis (Annexin V-PE/DAPI), 22RV1; type: cell-based, human; conditions: 22RV1, compound at its IC50, 24 h
Description: The control PC3 and 22RV1 cells and compound-treated cells were stained with PE-Annexin V and DAPI for a more appropriate cell death examination, and the cellular fluorescence analysis was then performed using ADAMII LS (Figures 4–6). Apoptosis is a type of programmed cell death that can be detected using Annexin V and the DAPI reagent. On plasma membranes, annexin V binds to […] and DAPI can bind to DNA in cells. The dot plot and image data detect early and late apoptotic cells using these two fluorophores. […] Moreover, compound 9f-treated PC3 cells went through early apoptosis (6.27%), and late apoptosis phase (16.94%) (Figures 4(D) and 6). Likewise, the fluorescence images for 22RV1 (Figure 5) and PC3 (Figure 6) cells complement the dot plot data, as higher fluorescence of DAPI and RF images clearly distinguished compound 9f-treated cells from control. […]
Annexin V conjugated to fluorochromes (PE) retains its high affinity for phosphatidylserine (PS), making it a sensitive probe for flow cytometric analysis of apoptotic cells. […] When apoptosis is measured over time, cells can often be tracked from PE Annexin V and DAPI negative (viable, or no measurable apoptosis), to PE Annexin V positive and DAPI negative (early apoptosis), and finally to PE Annexin V and DAPI positive (end stage apoptosis and death). […]

HER2 = HER2 (Homo sapiens, UniProt P04626); assay: HotSpot kinase assay over HER2 (Reaction Biology)
Chain of HER2 (P04626 23-1255): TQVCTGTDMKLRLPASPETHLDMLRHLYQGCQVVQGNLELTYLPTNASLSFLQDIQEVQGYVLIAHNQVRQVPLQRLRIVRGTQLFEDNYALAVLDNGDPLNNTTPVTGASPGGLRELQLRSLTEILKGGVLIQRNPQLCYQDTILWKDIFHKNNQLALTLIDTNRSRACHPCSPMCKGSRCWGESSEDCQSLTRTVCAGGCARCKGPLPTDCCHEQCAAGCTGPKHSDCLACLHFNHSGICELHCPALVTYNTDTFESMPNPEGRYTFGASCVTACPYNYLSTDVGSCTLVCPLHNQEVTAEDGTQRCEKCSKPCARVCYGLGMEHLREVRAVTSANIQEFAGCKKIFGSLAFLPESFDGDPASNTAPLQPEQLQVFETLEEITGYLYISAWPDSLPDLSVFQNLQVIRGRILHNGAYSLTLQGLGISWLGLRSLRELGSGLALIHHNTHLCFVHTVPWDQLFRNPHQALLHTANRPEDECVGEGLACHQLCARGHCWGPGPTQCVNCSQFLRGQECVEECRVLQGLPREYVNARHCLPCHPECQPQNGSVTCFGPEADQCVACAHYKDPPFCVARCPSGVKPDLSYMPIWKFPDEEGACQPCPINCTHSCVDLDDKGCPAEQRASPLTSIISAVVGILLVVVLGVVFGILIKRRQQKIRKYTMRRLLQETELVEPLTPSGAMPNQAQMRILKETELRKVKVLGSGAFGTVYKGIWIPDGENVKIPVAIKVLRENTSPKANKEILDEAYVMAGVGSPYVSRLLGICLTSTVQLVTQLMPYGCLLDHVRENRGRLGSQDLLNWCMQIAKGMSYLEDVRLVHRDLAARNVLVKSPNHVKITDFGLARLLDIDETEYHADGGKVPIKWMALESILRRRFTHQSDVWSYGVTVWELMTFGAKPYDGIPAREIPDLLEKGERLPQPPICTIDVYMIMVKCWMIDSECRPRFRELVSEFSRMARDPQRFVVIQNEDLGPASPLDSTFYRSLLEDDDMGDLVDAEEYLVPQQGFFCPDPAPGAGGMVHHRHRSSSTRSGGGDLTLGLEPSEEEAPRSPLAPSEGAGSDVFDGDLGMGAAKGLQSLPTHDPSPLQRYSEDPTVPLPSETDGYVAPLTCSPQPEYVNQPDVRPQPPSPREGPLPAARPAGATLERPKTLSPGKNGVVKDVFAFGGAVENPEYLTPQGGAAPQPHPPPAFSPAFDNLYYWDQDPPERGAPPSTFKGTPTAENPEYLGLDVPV

T1 sequence (P11362 22-822): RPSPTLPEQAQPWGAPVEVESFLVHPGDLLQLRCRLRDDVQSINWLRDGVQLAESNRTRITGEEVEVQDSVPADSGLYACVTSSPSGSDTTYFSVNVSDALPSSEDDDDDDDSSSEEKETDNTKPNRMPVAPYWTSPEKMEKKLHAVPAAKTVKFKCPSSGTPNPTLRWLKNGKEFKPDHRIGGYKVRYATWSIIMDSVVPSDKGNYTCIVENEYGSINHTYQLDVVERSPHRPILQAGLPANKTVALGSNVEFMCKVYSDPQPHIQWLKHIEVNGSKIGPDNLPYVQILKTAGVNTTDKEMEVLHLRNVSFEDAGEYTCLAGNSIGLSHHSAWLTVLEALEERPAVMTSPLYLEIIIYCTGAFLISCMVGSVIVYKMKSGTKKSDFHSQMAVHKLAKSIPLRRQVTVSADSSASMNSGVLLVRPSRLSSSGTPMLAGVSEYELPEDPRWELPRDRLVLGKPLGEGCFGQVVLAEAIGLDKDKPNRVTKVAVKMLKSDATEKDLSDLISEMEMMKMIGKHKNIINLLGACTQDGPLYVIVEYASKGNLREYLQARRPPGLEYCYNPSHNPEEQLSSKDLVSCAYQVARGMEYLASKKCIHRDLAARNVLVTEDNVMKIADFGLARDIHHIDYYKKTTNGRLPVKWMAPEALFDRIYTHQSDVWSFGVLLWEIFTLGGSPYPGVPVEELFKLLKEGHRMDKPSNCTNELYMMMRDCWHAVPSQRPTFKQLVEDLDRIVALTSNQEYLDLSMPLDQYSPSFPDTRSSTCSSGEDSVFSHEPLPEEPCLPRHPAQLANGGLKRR

Compound COc1cc2ncnc(Nc3ccc(Oc4cccc(C(F)(F)F)c4)c(Cl)c3)c2cc1OCCCCn1ccnc1[N+](=O)[O-] [Compound 9f, N-(3-Chloro-4-(3-(trifluoromethyl)phenoxy)phenyl)-7-methoxy-6-(4-(2-nitro-1H-imidazol-1-yl)butoxy)quinazolin-4-amine] has an inhibition at 10 µM [1] of 5.54%, an inhibition at 10 µM [2] of -4.46% and an inhibition at 10 µM [3] of 24.3%. For the same compound, the IC50 [4] was 1 nM, the IC50 [5] was 2.7 nM and the “early apoptosis (E.A)” value (22RV1 cells) was 13.20%. The “late apoptosis (L.A)” value (22RV1 cells) was 15.38%, the IC50 (HER2) was 234 nM and the inhibition at 10 µM (HER2; read-out: % kinase inhibition HER2) was 98%.
